Here are results for seven molecules from ChEMBL document CHEMBL6109077, “Design, synthesis and in vitro validation of bivalent binders of SARS-CoV-2 spike protein: Obeticholic, betulinic and glycyrrhetinic acids as building blocks” (Bioorg Med Chem, 2025).

Active and inactive are the calls of the source. The calls are words filed in the database; no cut-off is given here.

For assay [1], the system named is 293T/ACE2. As to the kind of experiment: Inhibition of spike protein Omicron BA.2 mutant in pseudotyped SARS-CoV-2 infected in 293T/ACE2 cells assessed as reduction in viral entry at 10 uM preincubated with virus for 1 hr followed by cell infection and measured after 48 hrs by bright-glo luciferase reporter gene assay. The format is cell-based. As to conditions: Severe acute respiratory syndrome coronavirus 2, time 49.0 hrs.

The test system of assay [2] is 293T/ACE2. As to the kind of experiment: Inhibition of spike protein D614G mutant in pseudotyped SARS-CoV-2 infected in 293T/ACE2 cells assessed as reduction in viral entry at 10 uM preincubated with virus for 1 hr followed by cell infection and measured after 48 hrs by bright-glo luciferase reporter gene assay. The format is cell-based. As to conditions: Severe acute respiratory syndrome coronavirus 2, time 49.0 hrs. (In a reporter assay the amount or activity of a reporter protein is the signal.)

For `CC1(C)[C@@H](O)CC[C@]2(C)[C@H]3C(=O)C=C4[C@@H]5C[C@@](C)(C(=O)O)CC[C@]5(C)CC[C@@]4(C)[C@]3(C)CC[C@@H]12`, the inhibition result with 293T/ACE2 [1] and in the assay with 293T/ACE2 [2] was “Not active; No Statistically Significant Decrease Observed” each time.
Regarding `CC[C@H]1[C@@H](O)[C@@H]2[C@H](CC[C@]3(C)[C@@H]([C@H](C)CCC(=O)NCCCCCCn4cc(CCCCC(=O)O[C@H]5CC[C@H]6[C@@H](CC[C@]7(C)[C@@H]6C(=O)C=C6[C@@H]8C[C@@](C)(C(=O)OC)CC[C@]8(C)CC[C@]67C)C5(C)C)nn4)CC[C@@H]23)[C@@]2(C)CC[C@@H](O)C[C@@H]12`, the inhibition result in the assay with 293T/ACE2 [1] and with 293T/ACE2 [2] was “inactive” in each case.
With `C=C(C)[C@@H]1CC[C@]2(C(=O)OC)CC[C@]3(C)[C@H](CC[C@@H]4[C@@]5(C)CC[C@H](OC(=O)CCCNC(=O)CC[C@@H](C)[C@H]6CC[C@H]7[C@@H]8[C@H](O)[C@H](CC)[C@@H]9C[C@H](O)CC[C@]9(C)[C@H]8CC[C@]67C)C(C)(C)[C@@H]5CC[C@]43C)[C@@H]12`, the inhibition result in the assay on 293T/ACE2 [1] and in the assay on 293T/ACE2 [2] was “Active; Statistically Significant Effect Observed” throughout.
In the case of `C=C(C)[C@@H]1CC[C@]2(C(=O)OC)CC[C@]3(C)[C@H](CC[C@@H]4[C@@]5(C)CC[C@H](OC(=O)CCCCCCCCNC(=O)CC[C@@H](C)[C@H]6CC[C@H]7[C@@H]8[C@H](O)[C@H](CC)[C@@H]9C[C@H](O)CC[C@]9(C)[C@H]8CC[C@]67C)C(C)(C)[C@@H]5CC[C@]43C)[C@@H]12`, the inhibition result in the assay on 293T/ACE2 [1] and in the assay with 293T/ACE2 [2] was “Active; Statistically Significant Effect Observed” in each case.
With `C=C(C)[C@@H]1CC[C@]2(C(=O)O)CC[C@]3(C)[C@H](CC[C@@H]4[C@@]5(C)CC[C@H](O)C(C)(C)[C@@H]5CC[C@]43C)[C@@H]12`, the inhibition result in the assay on 293T/ACE2 [1] and in the assay on 293T/ACE2 [2] was “Not active; No Statistically Significant Decrease Observed” throughout.
As to `CC[C@H]1[C@@H](O)[C@@H]2[C@H](CC[C@]3(C)[C@@H]([C@H](C)CCC(=O)O)CC[C@@H]23)[C@@]2(C)CC[C@@H](O)C[C@@H]12`, the inhibition entry in the assay on 293T/ACE2 [1] and in the assay on 293T/ACE2 [2] was “Not active; No Statistically Significant Decrease Observed” each time.
For `C=C(C)[C@@H]1CC[C@]2(C(=O)OC)CC[C@@]3(C)[C@@H]4CC[C@@H]5[C@H](CC[C@H](OC(=O)CCCCc6cn(CCCCCCNC(=O)CC[C@@H](C)[C@H]7CC[C@H]8[C@@H]9[C@H](O)[C@H](CC)[C@@H]%10C[C@H](O)CC[C@]%10(C)[C@H]9CC[C@]78C)nn6)C5(C)C)[C@H]4CC[C@@H]3[C@@H]12`, the inhibition result in the assay on 293T/ACE2 [1] is on record as “Active; Significant Effect Observed”. Besides, in the assay on 293T/ACE2 [2], the inhibition entry is “inactive”.
